Measurements: PMC12458691 (Inorganic Chemistry, 2025)
Like-named read-outs stand apart in the source and are kept apart here. Marks after values point to notes of the source that are not given here.

What was measured:
[1] = Protonation constants by potentiometric and UV–vis titrations; type: physicochemical
Experimental: (§1) Caution! Perchlorate salts are explosive and should be handled with care; such compounds should never be heated as solids. The potentiometric titrations were carried out at 298.1 ± 0.1 K using 0.15 M NaClO4 as the supporting electrolyte. The experimental procedure (buret, potentiometer, cell, stirrer, microcomputer, etc.) has been fully described elsewhere. The acquisition of raw potentiometric data was performed with the computer program PASAT. The reference electrode was a Ag/AgCl electrode in a saturated KCl solution. The glass electrode was calibrated as a hydrogen-ion concentration probe by titration of previously standardized amounts of HCl with CO2-free NaOH solutions, and the equivalent point was determined by Gran’s method, , which gives the standard potential, E̊, and the ionic product of water (pK w = 13.73(1)). The computer program […] was used to calculate the protonation and stability constants. The HYSS program was used to obtain the distribution diagrams. The pH range investigated by using this technique was 2.5–11.0, in accordance with the linear response range of glass electrodes. The solutions were extensively deaerated with an argon flow before the potentiometric runs. A moderate argon flow was maintained throughout the course of the titrations. The different titration curves for each system (at least two) were treated either as a single set or as separate curves without significant variations in the values of the stability constants. Finally, the sets of data were merged and treated simultaneously to give the final stability constants.
The solvents used were of spectroscopic or equivalent grade. Water was twice distilled and passed through a Millipore apparatus. The pH values were measured with a Metrohm 713 pH meter, and adjustments of the hydrogen-ion concentration of the solutions were made with diluted HCl and NaOH solutions. UV–vis absorption spectra were recorded between pH 2 and 11 with an Agilent 8453 spectrometer. The resulting data from the titrations were used to calculate the third protonation constant of ^ COOMe PyNMe 3 . For this, the HypSpec program was employed, considering all of the absorbance intensities in the range of 250 and 350 nm.

[2] = Stability constants and speciation of Fe2+ complexes by potentiometric measurements; type: physicochemical; settings: for pFe: calculated for theoretical solutions
Experimental: as §1

[3] = Stability constants and speciation of Cu2+ complexes by potentiometric measurements; type: physicochemical; settings: for pCu: calculated for theoretical solutions
Experimental: as §1

[4] = McCord–Fridovich nitroblue tetrazolium (NBT) SOD activity assay; type: biochemical
From the text: First, the SOD activity of the complexes was studied by means of the nitroblue tetrazolium (NBT) method, also known as McCord–Fridovich method. This is a widely used, indirect method based on the side production of superoxide anions by the xanthine oxidase enzyme and their capture by the NBT dye to give formazan. − A compound displaying SOD activity decreases the flow of superoxide radical anions and, thereby, the production of formazan (see the representation of the fitting of the data in Figures and S13–S16). Thus, by following the absorption band of formazan at 560 nm, the SOD activity of the studied mimetic can be quantified. Blank experiments were recorded with the ligands alone without observing any effect. The values of IC50, defined as the amount of the compound necessary for achieving 50% inhibition of NBT reduction to formazan by the superoxide anion, together with the catalytic constants (k cat), were obtained as indicated in the Experimental Section and are summarized in Table .
The SOD-like activity was determined by using the nitroblue tetrazolium (NBT) method, which despite its limitations is frequently used to estimate the activity of SOD mimetics. − The assays were carried out in a pH = 7.4 50 mM HEPES buffer at 298 K. The xanthine (2.2 × 10^–4 M) and xanthine oxidase (ca. 3 UN) system was used to generate a reproducible and constant flux of superoxide anions. […] Data in the absence of the complex were used as a reference. […] The percentage of inhibition of the NBT reduction to formazan was used as a measure of the SOD activity of the compounds. The concentration of the complex required to yield 50% inhibition of NBT reduction (IC50) was determined from a plot of percentage inhibition versus complex concentration. The IC50 data were calculated from the mean values of (at least) three independent measurements. The catalytic constant was calculated from the IC50 using the equation k cat = k NBT[NBT]/IC50 where k NBT = (5.94 ± 0.5) × 10^4 M^–1 s^–1. −

[5] = parameters: method as in footnotes c–f, numbers not given; settings: Cu2+ complexes/salt/enzyme, literature data for comparison; ref footnotes c–f, numbers not given; cited from earlier work
[6] = Table S2, 0.15 M NaClO4, 298.1 K, ref 1 of the SI, cited from earlier work
[7] = Table S3, 0.15 M NaClO4, 298.1 K; ref 1 of the SI; cited from earlier work
[8] = parameters: method as in number not given; settings: Mn2+ complexes of the ligands, recently reported; ref number not given; cited from earlier work
[9] = parameters: method as in earlier work; settings: Table S3, 0.15 M NaClO4, 298.1 K; ref 1 of the SI; cited from earlier work
[10] = 0.15 M NaClO4, 298.1 K, potentiometry

| Compound | k cat (SOD catalytic constant) [5] | log K, H + HL ⇄ H2L (stepwise protonation constant) ([6]; potentiometry) | log K, H + L ⇄ HL (stepwise protonation constant) ([6]; potentiometry) | log β (∑log K, protonation) [6] | log K, [CuL(OH)]+ + H2O ⇄ [CuL(OH)2] + H+ [7] | log K, [CuL]2+ + H2O ⇄ [CuL(OH)]+ + H+ [7] | TON of catalase activity of the Mn2+ complexes [8] | log K, Fe2+ + L ⇄ [FeL]2+ (stability constant) [9] | log K, [FeL]2+ + H2O ⇄ [FeL(OH)] + H+ [9] | further results |
| --- | --- | --- | --- | --- | --- | --- | --- | --- | --- | --- |
| COC(=O)c1cc2nc(c1)CN(C)CCN(C)CCN(C)C2 [^ COOMe PyNMe 3] | – | – | – | – | – | – | – | – | – | log K, H2L^(2+x)++H^+⇄H3L^(3+x)+ (stepwise protonation constant) ([1]; 0.15 M NaClO4, 298.1 K, obtained by UV–vis spectroscopic titration): 2.48(1) ^f; log K, HL^(1+x)++H^+⇄H2L^(2+x)+ (stepwise protonation constant) [1, 10]: 7.03(1); log K, L^x+H^+⇄HL^(1+x)+ (stepwise protonation constant) [1, 10]: 10.57(2); three protonation constants, span from first to third ([1]; potentiometric titrations (third constant of COOMePyNMe3 by UV)): 10.57 to 2.48 logarithmic units; log K, Fe+L⇄[FeL] (stability constant) ([2]; 0.15 M NaClO4, 298.1 K): 9.46(2); log K, [FeL]+H2O⇄[FeL(OH)]+H ([2]; 0.15 M NaClO4, 298.1 K): –8.18(5); pFe ([2]; pH 7.4, [L]=[M]=1 µM): 6.27; pFe ([2]; pH 7.4, [L]=[M]=10 µM): 5.66; log K, Cu+L⇄[CuL] (stability constant) ([3]; 0.15 M NaClO4, 298.1 K): 16.84(3); log K, [CuL]+H2O⇄[CuL(OH)]+H ([3]; 0.15 M NaClO4, 298.1 K): –8.26(4); pCu ([3]; pH 7.4, [L]=[M]=1 µM): 9.79; pCu ([3]; pH 7.4, [L]=[M]=10 µM): 9.29; SOD activity of the Fe2+ complexes (in words) ([4]; NBT method, under the conditions of this study): negligible SOD activity; k cat (SOD catalytic constant) ([4]; metal complexes, calculated from IC50 as kNBT[NBT]/IC50, pH 7.4, [NBT] = 59 μM): 40.3 10^6 M^–1 s^–1; increase in the SOD catalytic constant of the Cu2+ complex on functionalization of the pyridine ([4]; relative to Cu2+ complexes of HPyNH3 or HPyNMe3): 34 fold |
| c1cc2nc(c1)CNCCNCCNC2 [^ H PyNH 3] | 1.7 10^6 M^–1 s^–1 | 7.96(1) | 10.54(1) | 20.40 | -10.7(1) | -8.68(8) | 25–37 | 12.68(2) | -6.94(5) | log K, H + H2L ⇄ H3L (stepwise protonation constant) ([6]; potentiometry): 1.90(1) |
| CN1CCN(C)Cc2cccc(n2)CN(C)CC1 [^ H PyNMe 3] | 1.2 10^6 M^–1 s^–1 | 7.37(1) | 10.88(1) | 18.25 | -11.31(8) | -8.53(4) | – | 9.72(2) | -9.08(4) | log K, [FeL(OH)]+ + H2O ⇄ [FeL(OH)2] + H+ [9]: -10.58(5) |
| COc1cc2nc(c1)CNCCNCCNC2 [^ MeO PyNH 3] | – | – | – | – | – | – | 25–37 | – | – | – |
| Oc1cc2nc(c1)CNCCNCCNC2 [^ OH PyNH 3] | – | – | – | – | – | – | 25–37 | – | – | – |
